Data: US20060084697A1, “Pi3k antagonists as radiosensitizers” (priority 2002, published 2006)

Test system: Akt
Assay: Western blot of radiation-induced Akt phosphorylation in HUVEC
Assay type: cell-based, human
Settings: HUVEC
Description: HUVEC cells were obtained from Clonetics and were maintained in EBM-2 medium supplemented with EGM™-2MV SINGLEQUOTS® (Bio-Whittaker, Inc., Walkersville, Md., United States of America). An Eldorado-8 Cobalt-60 teletherapy unit (Atomic Energy of Canada Limited, Mississauga, Ontario, Canada) was used to irradiate endothelial cell cultures at a dose rate of 0.84 Gy per minute. Delivered doses ranging from 0 to 12 Gy were verified by use of thermoluminescence detectors.
In order to determine if Akt is phosphorylated in response to irradiation, cultured HUVEC cells were serum starved for 4 hours, exposed to irradiation, and the phosphorylation of Akt was examined in cell extracts by Western blotting. Total cellular protein was extracted after radiation treatment as follows. Cells were counted and then washed with iced-cold PBS twice before the addition of lysis buffer (M-PER™ mammalian protein extraction reagent; Pierce Chemical Company, Rockford, Ill., United States of America; or 20 mM Tris, 150 mM NaCl, 1 mM EDTA, 1% Triton X-100, 2.5 mM sodium pyrophosphate, 1 mM phenylmethylsulphonyl fluoride (PMSF), and […] Leupeptin (Roche Molecular Biochemicals, Indianapolis, Ind., United States of America)). Protein concentrations were quantified using the Biorad method (Bradford, 1976). 50 μg protein was loaded into each well of an 8% sodium dodecyl […]-polyacrylamide gel electrophoresis (SDS-PAGE) gel and separated by electrophoresis. The proteins were subsequently transferred onto 0.45 μm nitrocellulose membranes. Membranes were blocked by incubation for 2 hours at room temperature in phosphate buffered saline-Triton (PBST: 0.9% NaCl, 0.3% Triton X-100, pH 7.4) containing 10% nonfat dry milk.
The presence of Akt protein on the membrane was determined as follows. The membranes were incubated with a 1:1000 dilution of rabbit antibody directed against either phosphorylated (Ser473) or non-phosphorylated human Akt overnight at 4° C. Rabbit antibodies were obtained from Cell Signaling Technology, Beverly, Mass., United States of America. The blots were then washed with PBST to remove unbound rabbit antibodies. The washed blots were then incubated for 1 hour at room temperature with a donkey anti-rabbit IgG secondary antibody (Amersham Biosciences, Piscataway, N.J., United States of America) diluted 1:1000 in PBST. The blots were again washed with PBST to remove unbound donkey antibodies. The presences of both phosphorylated and non-phosphorylated human Akt were determined by chemiluminescent detection of donkey anti-rabbit/rabbit anti-human Akt complexes using the ECL™ detection system (Amersham Biosciences) according to the manufacturer's protocol, followed by autoradiography. […]

O=c1cc(N2CCOCC2)oc2c(-c3ccccc3)cccc12 [LY294002, 2-(4-Morpholinyl)-8-phenyl-4H-1-benzopyran-4-one]
total Akt levels (wortmannin 4 nM or LY294002 2 μM): no effect
Akt phosphorylation following irradiation (wortmannin 4 nM or LY294002 2 μM added 30 minutes prior to irradiation, 3 Gy): strong inhibition
